# Patent publication US20210163929A1, “METHODS AND COMPOSITIONS FOR THE TREATMENT OF HEPATIC AND METABOLIC DISEASES” (The Regents of the University of California, priority 2018, published 2021)
# Entries after “also recorded” stand apart in the source; their conditions may differ.
# Legend:
# [1] = test system: miR-22; conditions: published data; cited from earlier work
# [2] = test system: miR-22 in HCT116 cells; experiment: miR-22 induction in HCT116 cells treated with bile acids or HDAC inhibitors; format: cell-based, human; conditions: 24 hours, CDCA 50, 100, 150 μM, OCA 25 and 50 μM
# [3] = test system: miR-22 in HCT116 cells; experiment: as above; format: cell-based, human; conditions: CDCA 150 μM
# Description: A time course study in which HCT116 cells were treated by 150 μM CDCA for indicated times. […] Data are presented as mean+/−S.D. * denotes p<0.05.
# Data are shown as mean+/−S.D. * p<0.05; ** p<0.01; ***p<0.001.
# OCA is a semi-synthetic bile acid, which as the structure of 6α-ethyl-chenodeoxycholic acid.
# [4] = test system: FGF21 signaling and miR-22 in Huh7 cells; experiment: mRNA and protein levels in Huh7 cells treated with OCA/INT-747, CDCA, butyrate or RA plus butyrate; format: cell-based, human; conditions: CDCA 150 μM
# Description: (§1) Cell culture: Huh7 cells were obtained from Japanese Collection of Research Bioresources and maintained in DMEM with 10% FBS. Cells were treated with DMSO, OCA (5 or 20 μM; Apexbio Technology LLC, Houston, Tex., USA) in serum-free media for indicated time. Cells were plated (1×10^6 cells per 60-mm dish, 2×10^5 cells per 6-well plates, and 1×10^5 cells per 24-well plates) overnight prior to treatment or infection.
# Gene expression quantification: Total RNA was extracted using TRIzol Reagent (Thermo Fisher Scientific, Waltham, Mass., USA), and cDNA was generated using High Capacity RNA-to-cDNA Kit (Applied Biosysterms, Carlsbad, Calif., USA). qRT-PCR was performed on ABI 7900HT Fast Real-time PCR system using Power SYBR® Green PCR Master Mix (Applied Biosysterms).
# (§2) Western blot: Western blot was performed as described previously (26). Antibodies used were anti-FGFR1, FGF21, FASN, phosphor (P)-AMPK, total (T)-AMPK, phosphor (P)-ERK1/2, and total (T)-ERK1/2 (Cell Signaling Technology, Beverly, Mass., USA), β-ACTIN (MilliporeSigma), CD36 (Bioss Antibodies Inc., Woburn, Mass., USA), CYCLIN A2, PGC1α (Novus Biologicals, LLC, Littleton, Colo., USA), and PPARα (Santa Cruz Biotechnology, Santa Cruz, Calif., USA).
# [5] = test system: HDAC1, HDAC4 and CYCLIN A2 in Huh7 and HCT116 cells; experiment: Deacetylase protein levels after miR-22 in Huh7 and HCT116 cells; format: cell-based, human
# [6] = test system: 3′UTR of FGFR1; experiment: Luciferase reporter assay, psiCHECK2-FGFR1 3′UTR in Huh7 cells; format: cell-based, human; conditions: 48 h infection then reporter transfection
# Description: (§3) Constructs and luciferase reporter assay: The 3′ untranslated region (3′-UTR) of the FGFR1 gene containing the putative binding site for miR-22 and the entire 3′-UTR of the FGF21 gene (105 bp) was cloned into the psiCHECK2 vector (Promega, Madison, Wis., USA) using NotI and XhoI. For cell infection, adenovirus (negative control), adenoviral-delivered miR-22 (miR-22), or adenoviral-miR-22 inhibitors (SEQ ID NO:1; Applied Biological Materials Inc., Richmond, BC) were used. Forty-eight h post infection, cells were transfected with psiCHECK2-FGR1-3′UTR or psiCHECK2-FGF21 3′UTR using Lipofectamine 2000 (Thermo Fisher Scientific). Twenty-four h later, cells were harvested for firefly and Renilla luciferase assay using the Dual-luciferase Reporter system (Promega). Renilla luciferase activity was standardized to firefly luciferase activity.
# [7] = test system: alcohol-induced steatosis in C57BL/6 mice; experiment: Alcohol-induced steatosis in mice treated with adenoviral miR-22 inhibitors; format: in vivo, mouse; conditions: FIG. 29E
# Description: We performed another pilot experiment to test the effect of miR-22 inhibitors in reducing alcohol-induced steatosis. The same method described above for FIG. 2C was used to induce steatosis followed by miR-22 inhibitor treatment through tail vein injection.
# Additionally, alcohol was used to induce fatty liver. Mice were on Liber DeCarli liquid diet supplemented with 5% alcohol for 3 weeks followed by delivery of adenoviral-control and adenoviral-miR-22 inhibitors using the same methods described above. During the interventions, mice continued having alcohol-supplemented liquid diet.
# 3-month old WT male mice were fed with Liber DeCarli diet with 5% alcohol supplementation for 3 weeks followed by adenovirus delivery of miR-22 inhibitor (1×10^9PFU) through tail vein injection (3 times in 10 days). The empty adenovirus was used as a negative control. The mice were killed 1 day after the last injection. Steatosis scored was graded on a scale of a scale of 0 (<5%), 1 (5-33%), 2 (34-66%), and 3 (>66%). […]
# Biochemical analysis: Hepatic triglyceride and cholesterol (BioAssay Systems, Hayward, Calif., USA) levels and serum lipopolysaccharide (LPS) (Thermo Fisher Scientific), alanine transaminase (ALT) (Pointe Scientific), and alkaline phosphatase (ALP) (Pointe Scientific) levels were quantified according to the manufacturer's instructions.
# [8] = test system: 3′UTR of FGF21; experiment: Luciferase reporter assay, psiCHECK2-FGF21 3′UTR in Huh7 cells; format: cell-based, human; conditions: 48 h infection then reporter transfection
# Description: as §3
# [9] = test system: PPREs in the regulatory region of FGF21; experiment: ChIP-qPCR of PPARα and PGC1α occupancy in Huh7 cells; format: cell-based, human; conditions: miR-22 overexpression
# Description: Chromatin immunoprecipitation (ChIP)-qPCR: ChIP-qPCR was performed based on a previous publication (27). Briefly, chromatin lysate was precleared before incubation with anti-PGC1α (Novus Biologicals) and anti-PPARα (Santa Cruz Biotechnology). IgG (Santa Cruz Biotechnology) and RNA Polymerase II antibody (MilliporeSigma) was used as negative and positive control, respectively. Samples were incubated with Dynase beads at 4° C. overnight followed by de-crosslinking and purification. DNA fragments generated served as templates for qPCR using Power SYBR Green PCR Master Mix.
# [10] = test system: Western diet-induced steatosis in C57BL/6 mice; experiment: Pilot study in Western diet-fed mice, tail vein adenoviral miR-22 mimics or inhibitors; format: in vivo, mouse
# Description: Wild type C57BL/6 mice were fed with a high fat and high sucrose (21.2% fat, 34% sucrose, and 0.2% cholesterol) Western diet (WD) since weaning (3 weeks). When mice were 2.5 months old, they received adenoviral-delivery of miR-22 mimics or miR-22 inhibitors (i.e., SEQ ID NO:1) via tail vein injection (1×10^9 PFU/100 μl saline, 3 doses in 10 days). […] In addition, hepatic Pgc1α mRNA level was reduced by miR-22 mimics, but increased by miR-22 inhibitors (FIG. 10).
# To further analyze the role miR-22 in regulating hepatic metabolism, we have done pilot studies to test the effect of miR-22 in non-alcoholic and alcoholic steatohepatitis. Steatosis was induced by feeding mice with a WD that has high fat and high sucrose content since weaning (3-weeks old). After 2 months of differential diet feeding, mild steatosis was found in WD-fed mice. Then, those WD-fed mice received adenoviral-control, adenoviral-delivered miR-22 mimics, or miR-22 inhibitors (i.e., SEQ ID NO:1) via tail vein injection (1×10^9 pfu/200 μl, 3 doses, weekly) while continuing a WD. […] These exciting findings indicate that forced miR-22 expression in WD-fed mice potentially can be a novel NASH model.
# [11] = test system: FGF21 signaling in Huh7 cells; experiment: Huh7 cells infected/transfected with miR-22 or miR-22 inhibitors, mRNA and Western blot; format: cell-based, human
# Description: However, miR-22 was induced in the livers and adipose tissues of WD-fed mice (FIG. 15B). Similarly, using human liver biopsy specimens, miR-22 levels were positively associated with hepatic fat content and inversely correlated with the mRNA levels of PGC-1α, a key regulator of mitochondrial biogenesis (FIG. 15C). […] To study the downstream effects of miR-22, miR-22 mimics (ID: MIMAT0000077, […] (SEQ ID NO:2), Applied Biological Materials Inc.) were used to transfect human liver Huh7 cells.
# as §1, §3, §2
# [12] = test system: mice after 2/3 liver resection; experiment: 2/3 liver resection in mice given miR-22 inhibitors or mimics; format: in vivo, mouse; conditions: compared to other groups
# Description: The data presented in FIGS. 38 and 39 further support the usefulness of miR-22 inhibition. For the experiments used to generate the data in FIG. 38, mice received miR-22 inhibitors or miR-22 mimics via tail vein injection 3 days prior to 2/3 liver resection (1×10^9 pfu in 100 μL saline, one injection per day). Mice were killed on day 0 (immediately after liver resection) or 2 days later.
# [13] = WD-fed C57BL/6 mice 2.5 months old, tail vein 1×10^9 PFU/100 μl, 3 doses in 10 days
Molecule,miR-22 induction [1],miR-22 level [2],FGF21 and miR-22 levels [3],FGF21 and miR-22 levels [4],"protein level of HDAC1, HDAC4 and CYCLIN A2 [5]",luciferase activity driven by FGFR1 3′UTR [6],"hepatic gene expression (PGC1α, CPT1, SREBP-1c, FASN, TNFα) [7]",luciferase activity driven by FGF21 3′UTR [8],occupancy of PPARα and PGC1α in the two PPREs of FGF21 [9],"hepatic Pgc1α mRNA level [10, 13]","hepatic lymphocyte infiltration [10, 13]","severity of steatosis / hepatic fat content [10, 13]","liver histology (hepatic fat content, lymphocyte infiltration) ([10]; WD-fed mice after 2 months of diet, tail vein 1×10^9 pfu/200 μl, 3 doses, weekly)",expression of βKlotho [11],total AMPK [11],PPARα and PGC1α protein levels ([11]; 48 h post infection),"AMPK and ERK1/2 activation (P-AMPK, P-ERK1/2) ([11]; miR-22 overexpression)","FGF21 and FGFR1 (SIRT1, p-AMPK) levels ([11]; miR-22 overexpression)","FGF21 and FGFR1 (SIRT1, p-AMPK) levels ([11]; miR-22 overexpression, listed as miR-22)",liver-to-body weight ratio and fat-to-body weight ratio [12]
"C[C@H](CCC(=O)O)[C@H]1CC[C@H]2[C@@H]3[C@H](O)C[C@@H]4C[C@H](O)CC[C@]4(C)[C@H]3CC[C@]12C [CDCA, chenodeoxycholic acid]",induced,induced miR-22,induced FGF21 and miR-22 levels,induced FGF21 and miR-22 levels,,,,,,,,,,,,,,,,
"miR-22 mimics: miR-22 mimics (ID: MIMAT0000077, AAGCUGCCAGUUGAAGAACUGU, SEQ ID NO:2), transfected or adenoviral-delivered (chemistry not given here; listed as Homo sapiens)",,,,,reduced the protein level of HDAC1 and HDAC4 as well as CYCLIN A2,decreased the luciferase activity,"reduced PGC1α and CPT1, but increased SREBP-1c, FASN, and TNFα",neither miR-22 nor miR-22 inhibitors changed the luciferase activity,substantially reduced,reduced,induced hepatic lymphocyte infiltration,increased the severity of steatosis,increased hepatic fat content and lymphocyte infiltration,did not affect the expression of βKlotho,had no effect on total AMPK,reduced PPARα and PGC1α,AMPK and ERK1/2 deactivation,"reduced the protein level of FGF21, FGFR1 and p-AMPK; also recorded: reduced the protein level of FGF21, FGFR1, and SIRT1",reduced FGF21 and FGFR1 at both mRNA and protein levels,substantially higher
